Measurements as given in patent US20140288040A1, “SUBSTITUTED BENZYLAMINE COMPOUNDS, THEIR USE IN MEDICINE, AND IN PARTICULAR THE TREATMENT OF HEPATITIS C VIRUS (HCV) INFECTION” (ASTEX THERAPEUTICS LIMITED, priority 2011, published 2014).
Counter-ions that a name gives are not always drawn. Like-named read-outs stand apart in the source and are kept apart here.

Key:
[1] = system: HCV subgenomic replicon in Huh-7 cells; assay: Replicon assay, EC50 luciferase readout; type: cell-based, hepatitis C virus (HCV)
Method: The activities of compounds of the invention against HCV in a cellular environment were analysed using a replicon assay as described below.
Thus, Huh-7 cells persistently infected with an HCV-RNA construct (Bartenschlager, R. Hepatitis C replicons: potential role for drug development. Nature Rev. Drug Discov. 1, 911-916 (2002)) comprising: 5′ and 3′ non-translated regions (NTR); the non-structural genes NS3 to NS5b; as well as the G418 drug resistance gene, neomycin, (for selection of cells carrying HCV replicon RNA) fused to the firefly Luciferase reporter gene (pFK13889luc-ubi-neoNS3-3′ET), were used to determine the cell based antiviral activity of compounds using luciferase activity as an indirect readout of HCV RNA load. In this assay […] huh-7 cells persistently infected with the HCV subgenomic replicon construct above were platedwell in a 96 well tissue culture plate. The cells were allowed to attach overnight in DMEM medium supplemented with 10% FBS 1% NEAA, and 250 μgml gentamicin. The following day the medium was replaced with 200 μlwell of fresh medium as described above lacking gentamicin. […] Plates were then incubated at 37° C. in an atmosphere of 5% CO2 and air for 72 h. […] The plate was then read at 535 nm (excitation) and 590 nm (emission) on a SpectraMax Gemini reader (Molecular Devices) to determine the number of viable cells by measuring the conversion of rezasurin (Alamar blue) to resorufin in response to mitochondrial activity. In order to determine the antiviral effect of these compounds EC50 values were determined by measuring the luciferase activity of the cells. Alamar blue solution was removed from the wells and replaced with 100 μlwell of medium along with 100 μlwell of Bright-Glo reagent and incubated at room temperature for 5 minutes before transferring 100 μlwell to a white bottom 96 well plate to read in a luminometer as described in the Bright-Glo Luciferase Assay System protocol (promega).

[2] = molecular target: T1, HCV NS3 protease (full length NS34a) (Hepatitis C virus genotype 1b, UniProt P26663); assay: HCV NS3 protease assay (FRET, full length NS34a); type: biochemical
T1 construct: The protease activity of the full length NS34a was measured using a FRET-based assay; made in house
How it was run: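 Full-length NS34a incubated with compound and an NS4AB cleavage-site FRET peptide (QXL520 quencher, 5-FAMsp fluorophore) in 50 mM Tris pH8, 20 mM DTT, 1% CHAPS, 10% glycerol, 5% DMSO. Fluorescence followed for 30 minutes at room temperature; IC50 from initial rates of replicate progress curves.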

[3] = Hepatitis C virus, Huh-7, 72 h, Huh-7 replicon cells, 72 h, single value, or second value of a pair x:y, read-out: Activity EC50 (μM) (EC50 luciferase readout)
[4] = protease activity of full length NS34a, FRET peptide substrate, read-out: Activity IC50
[5] = IC50 values of 10-150 μM against the protease activity of the full length NS34a, or at least 40% inhibition of protease activity at a concentration of 100 μM
[6] = Hepatitis C virus, Huh-7, 72 h, read-out: Activity EC50 (μM) (EC50 luciferase readout), Huh-7 replicon cells, 72 h, single value, or second value of a pair x:y

T1 sequence (P26663 1658-1711): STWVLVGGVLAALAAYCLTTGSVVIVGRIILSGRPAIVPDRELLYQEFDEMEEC
T1 sequence (P26663 1027-1657): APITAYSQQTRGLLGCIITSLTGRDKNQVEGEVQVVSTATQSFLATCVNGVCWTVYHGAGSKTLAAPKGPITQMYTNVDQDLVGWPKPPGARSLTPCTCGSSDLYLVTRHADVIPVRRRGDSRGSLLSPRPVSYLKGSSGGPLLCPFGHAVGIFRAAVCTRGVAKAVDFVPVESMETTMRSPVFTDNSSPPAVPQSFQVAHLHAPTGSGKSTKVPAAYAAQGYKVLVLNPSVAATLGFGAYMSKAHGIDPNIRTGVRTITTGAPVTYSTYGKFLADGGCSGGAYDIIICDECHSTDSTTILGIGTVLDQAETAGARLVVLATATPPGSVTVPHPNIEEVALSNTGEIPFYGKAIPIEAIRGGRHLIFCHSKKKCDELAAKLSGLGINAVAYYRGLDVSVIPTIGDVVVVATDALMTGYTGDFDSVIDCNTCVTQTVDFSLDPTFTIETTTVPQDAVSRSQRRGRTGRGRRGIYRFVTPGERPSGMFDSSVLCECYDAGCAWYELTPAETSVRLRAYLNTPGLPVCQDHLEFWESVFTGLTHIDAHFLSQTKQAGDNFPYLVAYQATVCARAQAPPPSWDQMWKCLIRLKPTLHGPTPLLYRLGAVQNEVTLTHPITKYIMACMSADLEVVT

Compound | EC50 [1, 3] | IC50 [2, 4] | further results
CCC(NCC(C)O)c1ccc(F)c(Oc2ccccc2)c1F (mixture of isomers) [Example 53, 1-[1-(2,4-Difluoro-3-phenoxy-phenyl)-propylamino]-propan-2-ol.hydrochloride] | 26 µM | 5000 nM | 
N[C@H](c1ccc(F)c(Oc2ccccc2)c1F)[C@H]1CCOC1 (relative stereo) [Example 61, C-(2,4-Difluoro-3-phenoxy-phenyl)-C-(tetrahydrofuran-3-yl)-methylamine.hydrochloride] | > 30 µM |  | IC50 [2, 5]: 10000 to 150000 nM
N[C@@H](c1ccc(F)c(Oc2ccccc2)c1F)[C@H]1CCOC1 (relative stereo) [Example 62, C-(2,4-Difluoro-3-phenoxy-phenyl)—C-(tetrahydro-furan-3-yl)-methylamine.hydrochloride] | > 30 µM | 7200 nM | 
CC(CO)NC(c1ccc(F)c(Oc2ccccc2)c1F)C1CCNCC1 (single isomer, unassigned) [Example 75, 2-{[(2,4-Difluoro-3-phenoxy-phenyl)-piperidin-4-yl-methyl]-amino}-propan-1-ol.dihydrochloride] | 4.8 µM | 3300 nM | 
CC(CO)NC(c1ccc(F)c(Oc2ccccc2)c1F)C1CCNCC1 (single isomer, unassigned) [Example 76, 2-{[(2,4-Difluoro-3-phenoxy-phenyl)-piperidin-4-yl-methyl]-amino}-propan-1-ol.dihydrochloride] |  | 2900 nM | EC50 ([1]; Huh-7 replicon cells, 72 h, single value, or second value of a pair x:y, read-out: Activity EC50 (μM) (EC50 luciferase readout)): 6 µM
CC[C@H](N[C@H](C)CC(N)=O)c1ccc(Cl)c(Oc2ccccc2)c1F (single isomer, unassigned) [Example 83] | 17 µM | 6700 nM | 
CC[C@@H](N[C@@H](C)c1ccc[nH]c1=O)c1ccc(Cl)c(Oc2ccccc2)c1F (single isomer, unassigned) [Example 315] | > 10 µM | 3500 nM | 
CC(C)C(N)c1ccc(F)c(Oc2ccccc2)c1F (stereo not shown) [Example 1, 1-(2,4-Difluoro-3-phenoxy-phenyl)-2-methyl-propylamine. hydrochloride] | 15 µM | 2500 nM | 
CC(C)CC(N)c1ccc(F)c(Oc2ccccc2)c1F (stereo not shown) [Example 2] | 2.4 µM | 2200 nM | 
CCC(N)c1ccc(F)c(Oc2ccccc2)c1F (stereo not shown) [Example 3, 1-(2,4-Difluoro-3-phenoxy-phenyl)-propylamine. hydrochloride] | 22 µM | 2100 nM | 
CC(N)c1ccc(F)c(Oc2ccccc2)c1F (stereo not shown) [Example 4] | 13 µM | 7000 nM | 
CCC(N[C@H]1CC[C@H](N)CC1)c1ccc(F)c(Oc2ccccc2)c1F (stereo partly drawn) [Example 5, Trans-N-[1′-(2,4-difluoro-3-phenoxy-phenyl)-propyl]-cyclohexane-1,4-diamine] | 0.13 µM | 2000 nM | 
CCC(N[C@H]1CC[C@@H](N)CC1)c1ccc(F)c(Oc2ccccc2)c1F (stereo partly drawn) [Example 6, cis-N-[1-(2,4-Difluoro-3-phenoxy-phenyl)-propyl]-cyclohexane-1,4-diamine dihydrochloride] | 0.14 µM |  | IC50 [2, 5]: 10000 to 150000 nM
CC[C@@H](Nc1ncc(CN)cn1)c1ccc(Cl)c(Oc2ccccc2)c1F [Example 8, (5-Aminomethyl-pyrimidin-2-yl)-[(R)-1-(4-chloro-2-fluoro-3-phenoxy-phenyl)-propyl]-amine hydrochloride] | 10 µM | 330 nM | 
CC[C@@H](N[C@@H](C)C(=O)NCCN)c1ccc(Cl)c(Oc2ccccc2)c1F [Example 9, (S)—N-(2-Amino-ethyl)-2-[(R)-1-(4-chloro-2-fluoro-3-phenoxy-phenyl)-propylamino]-propionamide dihydrochloride] | 10 µM |  | inhibition at 0.01 µM ([2]; read-out: Activity % inhibition @ 0.01 μM): 40.5%
CC[C@@H](N)c1ccc(F)c(Oc2ccccc2)c1F [Example 11] | 0.8 µM | 2200 nM | 
CCCC(N)c1ccc(F)c(Oc2ccccc2)c1F (stereo not shown) [Example 12] | 10 µM | 1200 nM | 
NC(C1=CCNCC1)c1ccc(F)c(Oc2ccccc2)c1F (stereo not shown) [Example 13, C-(2,4-Difluoro-3-phenoxy-phenyl)-C-(1,2,3,6-tetrahydro-pyridin-4-yl)-methylamine. dihydrochloride] | 2 µM | 3100 nM | 
NC(c1ccc(F)c(Oc2ccccc2)c1F)C1CCNCC1 (stereo not shown) [Example 14, C-(2,4-Difluoro-3-phenoxy-phenyl)-C-piperidin-4-yl-methylamine. dihydrochloride] | 2 µM | 1700 nM | 

Compound | EC50 [1, 3] | IC50 [2, 4] | further results
CNC(CC(C)C)c1ccc(F)c(Oc2ccccc2)c1F (stereo not shown) [Example 16, [1-(2,4-Difluoro-3-phenoxy-phenyl)-3-methyl-butyl]-methyl-amine. hydrochloride] | 0.58 µM | 4000 nM | 
CCC(NC1CCCNC1)c1ccc(F)c(Oc2ccccc2)c1F (stereo not shown) [Example 17] | 2.8 µM |  | IC50 [2, 5]: 10000 to 150000 nM
CC[C@@H](N[C@@H](C)CC(N)=O)c1ccc(Cl)c(Oc2ccc(F)c(C(=O)N3CCOCC3)c2)c1F.Cl [Example 423] | 1.4 µM |  | 
CC[C@@H](N[C@@H](C)CC(N)=O)c1ccc(Cl)c(Oc2ccc(F)c(C(=O)N(C)C)c2)c1F.Cl [Example 425] | 0.35 µM |  | 
CC[C@@H](N[C@@H](C)CC(N)=O)c1ccc(Cl)c(Oc2cnc(N)cn2)c1F.Cl [Example 429] | 3 µM |  | 
CC[C@@H](N[C@@H](C)CC(N)=O)c1ccc(Cl)c(Oc2ncccn2)c1F.Cl [Example 431] | > 3 µM |  | 
CC[C@@H](N[C@@H](C)CC(N)=O)c1ccc(Cl)c(Oc2ncc(N)cn2)c1F.Cl [Example 433] | 1.6 µM |  | 
CC[C@@H](N[C@@H](C)CC(N)=O)c1ccc(Cl)c(Oc2nc3ccccc3s2)c1F.Cl [Example 435] | 3 µM |  | 
CC[C@@H](N[C@@H](C)CC(N)=O)c1ccc(Cl)c(Oc2nc3cnccc3s2)c1F.Cl [Example 438] | > 3 µM |  | 
CC[C@@H](N[C@@H](C)CC(N)=O)c1ccc(Cl)c(Oc2ccc(C(N)=O)cc2)c1F.Cl [Example 444] |  |  | EC50 [1, 6]: 0.82 µM
C[C@@H](CC(N)=O)N[C@@H](c1ccc(Cl)c(Oc2ccc(N)nc2)c1F)C1CC1.Cl [Example 454] |  |  | EC50 [1, 6]: 0.16 µM
C[C@@H](CC(N)=O)N[C@@H](c1ccc(Cl)c(Oc2ccc(C(N)=O)nc2)c1F)C1CC1.Cl [Example 456] | > 3 µM |  | 
CC[C@@H](N[C@@H](C)CC(N)=O)c1ccc(Cl)c(Oc2ccc(NC(C)=O)nc2)c1Cl [Example 458] | 3.5 µM |  | 
C[C@@H](CC(N)=O)N[C@@H](c1ccc(Cl)c(Oc2ccccc2)c1F)C1CC1 [Example 459] | 0.63 µM |  | 
CC[C@@H](NC(C)(C)CC(N)=O)c1ccc(Cl)c(Oc2ccc(N)nc2)c1F [Example 460, 3-{[(1R)-1-{3-[(6-aminopyridin-3-yl)oxy]-4-chloro-2-fluorophenyl}propyl]amino}-3-methylbutanamide hydrochloride (1:1)] | 0.13 µM |  | 
CC[C@@H](N[C@@H](C)CC(N)=O)c1ccc(Cl)c(Oc2ccccc2)c1C [Example 468] | > 3 µM |  | 
[2H]C([2H])([2H])C([2H])([2H])[C@@H](N[C@@H](C)CC(N)=O)c1ccc(Cl)c(Oc2ccccc2)c1F [Example 472] | > 3 µM |  | 
CC(C)(C)C#Cc1cc(N(C(=O)[C@H]2CC[C@H](C)CC2)[C@H]2CC[C@H](O)CC2)c(C(=O)O)s1 [VX-222, Lomibuvir, reference compound] |  |  | EC50 ([1]; Hepatitis C virus, Huh-7, replicon assay, set in line with previous observations, read-out: pre-determined EC50 set for the combination experiments): 0.003 µM
